“And” between values parts separate entries of the source, which are not always exact repeats. Identical values can stand only once. Inconclusive results and toxic doses are left out. How the source made its calls: active means survival T/C of 150% or more; inactive means T/C below 125% in these data. Square brackets hold non-standard residues; d marks the D form. Peptide text beside a SMILES is read from it. * marks the point of attachment. ξ: configuration not given here. Cbz = O=C(OCc1ccccc1)*; ξP = O=C(O)C1CCCN1
Test system: P388 leukemia ip, CD2F1 mice, survival T/C
Assay: NCI In Vivo Anticancer Drug Screen. Data for tumor model P388 Leukemia (intraperitoneal) in CD2F1 (CDF1) mice
Conditions: endpoint: median survival time, higher = longer survival
In short: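 Mice carrying the transplanted tumor received test compound or vehicle. Survival was recorded in each group, and the value is the treated-group measurement divided by that of the vehicle-treated control group.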

[1] = dose: 15.0 mg/kg/injection, schedule: Q01DX005 (ip), vehicle: saline with Tween-80
[2] = dose: 50.0 mg/kg/injection, schedule: Q01DX005 (ip), vehicle: saline with Tween-80
[3] = dose: 100.0 mg/kg/injection, schedule: Q01DX005 (ip), vehicle: saline with Tween-80
[4] = dose: 200.0 mg/kg/injection, schedule: Q01DX005 (ip), vehicle: saline with Tween-80
[5] = dose: 3.12 mg/kg/injection, schedule: Q01DX005 (ip), vehicle: saline
[6] = dose: 12.5 mg/kg/injection, schedule: Q01DX009 (ip), vehicle: saline with Tween-80
[7] = dose: 25.0 mg/kg/injection, schedule: Q01DX009 (ip), vehicle: saline with Tween-80
[8] = dose: 50.0 mg/kg/injection, schedule: Q01DX009 (ip), vehicle: saline with Tween-80
[9] = dose: 100.0 mg/kg/injection, schedule: Q01DX009 (ip), vehicle: saline with Tween-80
[10] = dose: 200.0 mg/kg/injection, schedule: Q01DX009 (ip), vehicle: saline with Tween-80

Measured: T/C

O=C1c2ccccc2C(=O)N1Cc1ccc(CCl)s1
inactive: [1] 101 % of control | dose: 30.0 mg/kg/injection, schedule: Q01DX005 (ip), vehicle: saline with Tween-80 102 % of control | dose: 60.0 mg/kg/injection, schedule: Q01DX005 (ip), vehicle: saline with Tween-80 100 % of control and 105 % of control | dose: 120.0 mg/kg/injection, schedule: Q01DX005 (ip), vehicle: saline with Tween-80 119 % of control | dose: 240.0 mg/kg/injection, schedule: Q01DX005 (ip), vehicle: saline with Tween-80 112 % of control

c1ccc(N[n+]2ccc3ccccc3c2)cc1
inactive: dose: 6.25 mg/kg/injection, schedule: Q01DX009 (ip), vehicle: distilled water + alcohol 104 % of control | dose: 12.5 mg/kg/injection, schedule: Q01DX009 (ip), vehicle: distilled water + alcohol 104 % of control | dose: 25.0 mg/kg/injection, schedule: Q01DX009 (ip), vehicle: distilled water + alcohol 102 % of control

CC1CC[P+](Cc2ccccc2)(c2ccccc2)CC1 (centres undefined)
inactive: dose: 1.56 mg/kg/injection, schedule: Q04DX002 (ip), vehicle: saline 98 % of control | dose: 3.13 mg/kg/injection, schedule: Q04DX002 (ip), vehicle: saline 95 % of control | dose: 6.25 mg/kg/injection, schedule: Q04DX002 (ip), vehicle: saline 90 % of control

CC(=O)/C=C1/NC=CN(C(=O)c2ccccc2)C1c1ccccc1 (centres undefined)
inactive: dose: 60.0 mg/kg/injection, schedule: Q01DX005 (ip), vehicle: Klucel (hydroxypropylcellulose) (HPC) 94 % of control | dose: 120.0 mg/kg/injection, schedule: Q01DX005 (ip), vehicle: Klucel (hydroxypropylcellulose) (HPC) 92 % of control | dose: 240.0 mg/kg/injection, schedule: Q01DX005 (ip), vehicle: Klucel (hydroxypropylcellulose) (HPC) 87 % of control

CCN1CCCC(=O)C1
inactive: [2] 96 % of control | [3] 101 % of control | [4] 102 % of control

CSc1nc(C)c(C(=O)CCN2CCN(c3ccccn3)CC2)s1
inactive: dose: 60.0 mg/kg/injection, schedule: Q01DX005 (ip), vehicle: saline 104 % of control | dose: 120.0 mg/kg/injection, schedule: Q01DX005 (ip), vehicle: saline 113 % of control

C=C(CN(C)C)C(=O)c1ccc(C(=O)C(=C)CN(C)C)cc1
inactive: dose: 0.78 mg/kg/injection, schedule: Q01DX005 (ip), vehicle: saline 105 % of control | dose: 1.56 mg/kg/injection, schedule: Q01DX005 (ip), vehicle: saline 107 % of control | [5] 108 % of control

C1=CSC(=C2SC=CS2)S1
inactive: dose: 6.25 mg/kg/injection, schedule: Q01DX009 (ip), vehicle: saline with Tween-80 106 % of control | [6] 106 % of control and 97 % of control | [7] 102 % of control and 110 % of control | [8] 100 % of control and 106 % of control and 114 % of control | [9] 108 % of control | [10] 100 % of control

O=C(O)CNC(=O)C1CCCN1C(=O)OCc1ccccc1 (centres undefined) (Cbz-[ξP]-Gly-OH)
inactive: [2] 100 % of control | [3] 91 % of control | [4] 91 % of control

O=C(O)c1[nH]c(=O)[nH]c(=O)c1CO
inactive: dose: 6.25 mg/kg/injection, schedule: Q01DX009 (ip), vehicle: distilled water + Tween-80 99 % of control | dose: 12.5 mg/kg/injection, schedule: Q01DX009 (ip), vehicle: distilled water + Tween-80 100 % of control | dose: 25.0 mg/kg/injection, schedule: Q01DX009 (ip), vehicle: distilled water + Tween-80 103 % of control | dose: 50.0 mg/kg/injection, schedule: Q01DX009 (ip), vehicle: distilled water + Tween-80 110 % of control | dose: 100.0 mg/kg/injection, schedule: Q01DX009 (ip), vehicle: distilled water + Tween-80 100 % of control | dose: 200.0 mg/kg/injection, schedule: Q01DX009 (ip), vehicle: distilled water + Tween-80 95 % of control | dose: 400.0 mg/kg/injection, schedule: Q01DX009 (ip), vehicle: distilled water + Tween-80 104 % of control

CN1CCC2(C)CC1Cc1ccc(O)cc12 (centres undefined)
inactive: [5] 96 % of control | dose: 6.25 mg/kg/injection, schedule: Q01DX005 (ip), vehicle: saline 104 % of control | dose: 12.5 mg/kg/injection, schedule: Q01DX005 (ip), vehicle: saline 105 % of control | dose: 25.0 mg/kg/injection, schedule: Q01DX005 (ip), vehicle: saline 96 % of control

Cc1nc2[nH]c(=S)[nH]c(=O)c2nc1C
inactive: [9] 104 % of control | dose: 100.0 mg/kg/injection, schedule: Q04DX003 (ip), vehicle: saline with Tween-80 95 % of control | [10] 100 % of control | dose: 200.0 mg/kg/injection, schedule: Q04DX003 (ip), vehicle: saline with Tween-80 95 % of control | dose: 400.0 mg/kg/injection, schedule: Q01DX009 (ip), vehicle: saline with Tween-80 95 % of control | dose: 400.0 mg/kg/injection, schedule: Q04DX003 (ip), vehicle: saline with Tween-80 95 % of control

COc1ccc(-n2cc[n+](C)c2/C=N\O)cc1
inactive: [8] 97 % of control | [9] 98 % of control

CN1C(=O)C=CC1=O
inactive: dose: 0.5 mg/kg/injection, schedule: Q01DX009 (ip), vehicle: saline 96 % of control | dose: 1.0 mg/kg/injection, schedule: Q01DX009 (ip), vehicle: saline 103 % of control | dose: 2.0 mg/kg/injection, schedule: Q01DX009 (ip), vehicle: saline 100 % of control | dose: 4.0 mg/kg/injection, schedule: Q01DX009 (ip), vehicle: saline 101 % of control

C#C/C=C/CC1OC(C(Br)CC)/C=C\CCC1Cl (centres undefined)
inactive: dose: 2.0 mg/kg/injection, schedule: Q01DX009 (ip), vehicle: Klucel (hydroxypropylcellulose) (HPC) 94 % of control | dose: 4.0 mg/kg/injection, schedule: Q01DX009 (ip), vehicle: Klucel (hydroxypropylcellulose) (HPC) 98 % of control | dose: 8.0 mg/kg/injection, schedule: Q01DX009 (ip), vehicle: Klucel (hydroxypropylcellulose) (HPC) 103 % of control | dose: 16.0 mg/kg/injection, schedule: Q01DX009 (ip), vehicle: Klucel (hydroxypropylcellulose) (HPC) 94 % of control

COC(=O)c1ccc(C(=S)SC)cc1
inactive: dose: 100.0 mg/kg/injection, schedule: Q04DX002 (ip), vehicle: saline 100 % of control | dose: 200.0 mg/kg/injection, schedule: Q04DX002 (ip), vehicle: saline 100 % of control | dose: 400.0 mg/kg/injection, schedule: Q04DX002 (ip), vehicle: saline 99 % of control

O=C1NC(=O)C2CCCCC12 (centres undefined)
inactive: [6] 109 % of control | [7] 102 % of control | [8] 100 % of control | [9] 100 % of control

CC(O)CNC1CCCCC1 (centres undefined)
inactive: [7] 100 % of control | [8] 100 % of control | [9] 100 % of control

COc1ccc2c(c1)NC(c1ccc(C(N)=S)cc1)N2 (centres undefined)
inactive: dose: 100.0 mg/kg/injection, schedule: Q04DX002 (ip), vehicle: saline with Tween-80 89 % of control | dose: 200.0 mg/kg/injection, schedule: Q04DX002 (ip), vehicle: saline with Tween-80 87 % of control | dose: 400.0 mg/kg/injection, schedule: Q04DX002 (ip), vehicle: saline with Tween-80 88 % of control

CN(C)c1ccc(C(c2c(O)c3ccccc3oc2=O)c2c(O)c3ccccc3oc2=O)cc1
inactive: dose: 3.75 mg/kg/injection, schedule: Q01DX005 (ip), vehicle: saline with Tween-80 99 % of control | dose: 7.5 mg/kg/injection, schedule: Q01DX005 (ip), vehicle: saline with Tween-80 91 % of control | [1] 88 % of control and 98 % of control

Reference: PubChem BioAssay AID330 (DTP/NCI, 2004)
